The text below walks through data of paper PMC6273229, “Imidazopyranotacrines as Non-Hepatotoxic, Selective Acetylcholinesterase Inhibitors, and Antioxidant Agents for Alzheimer′s Disease Therapy” (Molecules, 2016).

For orientation: IC50 means the midpoint of a concentration-inhibition curve. For orientation: inhibition means the percentage by which the read-out fell short of the control. The term Ki denotes the equilibrium dissociation constant of an inhibitor or competing ligand from its target.

The test system of one series is HepG2 cells. The format is cell-based. The conditions noted are these: for Cell viability (MTT reduction, % control): 24 h, mean ± S.E.M.; for hepatotoxicity on HepG2 cells (in words): cell viability assay, 1–1000 µM. As to the method:
The human hepatoma HepG2 line cells were purchased from American Type Culture Collection. The cells were cultured in Eagle’s Minimum Essential Medium (Ozyme, Montigny-le-Bretonneux, France) supplemented with 10% fetal bovine serum, 1X non-essential amino acids, 100 units/mL penicillin and […] streptomycin (Dutscher, Brumath, France). […] Prior to the experiment, cells were seeded in 96-well culture plates at a density of 0.1 × 10^6 cells per well. After 24 h of incubation, the culture medium was refreshed and 100 µL of the test compounds or DMSO (0.1%) were added. Compounds were tested at 7 concentrations (1–1000 µM) in triplicate.
Cell viability, measured as the mitochondrial activity of living cells, was determined by quantitative colorimetric assay with 3-[4,5 dimethylthiazol-2-yl]-2,5-diphenyl-tetrazolium bromide (MTT). Briefly, after 24 h of treatment, cells were incubated with 50 µL MTT (0.5 mg/mL, Sigma Aldrich) at 37 °C for 2 h. Plates were centrifuged, MTT was removed and 100 µL DMSO was distributed per well. The absorbance was read at 570 nm by microplate spectrophotometry. Cell viability was expressed as percentage over controls (DMSO, 0.1%).
On the technique in general: Tetrazolium dyes change colour on reduction, which living cells bring about.

The nature of series [1]: Oxygen radical absorbance capacity by fluorescence (ORAC-FL). To be noted: Trolox equivalents, mean ± SD. The protocol:
The antioxidant power of the imidazopyranotacrines 1–13 was determined by the oxygen radical absorbance capacity by fluorescence (ORAC-FL) method using fluorescein as fluorescent probe and Trolox (6-hydroxy-2,5,7,8-tetramethylchroman-2-carboxylic acid) as a reference compound. Results are expressed as Trolox equivalents (μmol Trolox per μmol test compound).
The radical scavenging activity of imidazopyranotacrines 1–13 was determined by the ORAC-FL method using a Varioskan Flash plate reader with built-in injectors (Thermo Scientific). Trolox, 2,2′-azobis(amidinopropane) dihydrochloride (AAPH) and fluorescein (FL) were purchased from Sigma-Aldrich. The reaction was performed at 37 °C in 75 mM phosphate buffer (pH = 7.4), and the final volume reaction mixture was 200 µL. The final concentrations were 1–8 µM for Trolox and 0.1–1 µM for the tested compounds. Briefly, in a black 96-well microplate (Nunc), antioxidant (20 µL) and fluorescein (120 µL) were incubated for 15 min at 37 °C. Then, 2,2′-azobis(amidinopropane) dihydrochloride (60 µL) was added using the built-in injector. […] All assays were made in triplicate and at least three different assays were performed for each sample.
The net AUC corresponding to a sample was calculated as follows: Net AUC = AUCantioxidant − AUCblank(2)
Regression equations were calculated by plotting the net AUC against the antioxidant concentration. The ORAC value was obtained by dividing the slope of the latter curve by the slope of the Trolox curve obtained in the same assay. ORAC values was expressed as µmol of Trolox equivalent/µmol of imidazopyranotacrines. Data are expressed as mean ± SD.

In series [2] the target is AChE from Electrophorus electricus (EeAChE) (Electrophorus electricus, UniProt O42275). As to the kind of experiment: biochemical. The protocol:
The inhibitory activity on AChE from Electrophorus electricus (type VI-S, Sigma, Milan, Italy), was evaluated spectrophotometrically by the method of Ellman et al.. AChE stock solution was prepared by dissolving EeAChE lyophilized powder (Sigma) in 0.1 M phosphate buffer (pH = 8.0) containing 0.1% Triton X-100. Stock solutions of the tested compounds (1 mM) were prepared in MeOH/H2O 50/50 (v/v) and diluted in MeOH/H2O 50/50 (v/v). […] Assay solutions with and without inhibitor were preincubated at 37 °C for 20 min followed by the addition of substrate. Blank solutions containing all components except EeAChE were prepared in parallel to account for the non-enzymatic hydrolysis of the substrate. Initial rate assays were performed at 37 °C with a Jasco V-530 double beam spectrophotometer. […] The velocity in the presence and absence of inhibitor were compared and % inhibition was calculated. The results were plotted by placing the percentage of inhibition in function of the decimal log of the final inhibitor concentration. Linear regression and IC50 values were calculated using Microcal Origin 3.5 software (Microcal Software, […]).

Series [3] addresses T1, BuChE from horse serum (eqBuChE) (Equus caballus, UniProt P81908).
T1 construct: BuChE from horse serum (lyophilized powder, Sigma-Aldrich); purchased Sigma-Aldrich; host or cells: horse serum
As to the kind of experiment: biochemical. The conditions noted are these: mean ± SEM. As to the method: The % inhibitory activity on BuChE from horse serum (lyophilized powder, Sigma-Aldrich), was evaluated spectrophotometrically by the method of Ellman et al.. BuChE stock solutions were first dissolved in 0.1 M phosphate buffer (pH 8.0) and then aliquoted in small vials. Compounds were dissolved in DMSO at 10 mM. The reaction was carried out in a final volume of 3 mL of a 0.1 M phosphate-buffered solution at pH 8.0, containing 5,5′-dithiobis-2-nitrobenzoic acid (DTNB, 2625 µL, 0.35 mM, final concentration), eqBuChE (60 µL, 0.05 U/mL final concentration), tested compound (3 µL, 10 µM, final concentration) and 1% w/v Bovine Serum Albumin phosphate-buffered (pH 8.0) solution (BSA, 40 µL). The inhibition with respect to control without compound was determined by pre-incubating this mixture at rt with each compound for 10 min. After this period, butyrylthiocholine iodide (150 µL, 0.5 mM final concentration) was added and incubated for 15 min at rt.

The next series deals with T2, EeAChE (Electrophorus electricus, UniProt O42275).
T2 construct: purchased Sigma type VI-S
T2 sequence (O42275 24-633): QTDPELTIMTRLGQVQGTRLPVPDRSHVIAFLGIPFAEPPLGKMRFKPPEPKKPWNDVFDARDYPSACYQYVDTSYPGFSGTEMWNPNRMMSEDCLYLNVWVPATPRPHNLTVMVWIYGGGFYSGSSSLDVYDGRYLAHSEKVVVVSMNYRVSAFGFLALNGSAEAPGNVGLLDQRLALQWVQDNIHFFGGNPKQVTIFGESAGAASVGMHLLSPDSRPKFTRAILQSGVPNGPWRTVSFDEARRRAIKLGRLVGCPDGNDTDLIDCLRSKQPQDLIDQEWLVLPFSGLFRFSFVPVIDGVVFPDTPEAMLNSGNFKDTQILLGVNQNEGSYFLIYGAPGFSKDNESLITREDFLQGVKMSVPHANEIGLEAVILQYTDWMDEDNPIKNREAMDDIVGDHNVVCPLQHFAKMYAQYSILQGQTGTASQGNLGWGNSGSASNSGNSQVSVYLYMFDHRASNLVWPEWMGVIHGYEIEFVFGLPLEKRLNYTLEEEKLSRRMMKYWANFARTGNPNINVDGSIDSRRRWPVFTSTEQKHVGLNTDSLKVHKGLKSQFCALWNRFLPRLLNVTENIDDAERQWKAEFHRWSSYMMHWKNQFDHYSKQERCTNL
The series is described as follows: Kinetic analysis of the inhibition of EeAChE (Lineweaver-Burk, Dixon, Cornish-Bowden plots). Format: biochemical. As to the method: . […] The non-competitive mechanism of action was confirmed by building the Cornish-Bowden plot (Figure 3B). Replots of the substrate/velocity versus the concentration of compound 8 provided an estimate of the non-competitive inhibition constant, which resulted equal to 4.10 μM. The non-competitive mechanism of action was confirmed by computational chemistry by performing the docking analysis of both enantiomers of compound 8 on AChE (see Supplementary Materials).
[…]. Four concentrations of inhibitor were selected for this study: 0.850, 2.124, 3.399, 6.798 μM. The plots were assessed by a weighted least-squares analysis that assumed the variance of the velocity (v) to be a constant percentage of v for the entire data set. Data analysis was performed with GraphPad Prism 4.03 software (GraphPad Software Inc., San Diego, CA, USA). The determination of the non-competitive inhibition constant Ki value was carried out using Dixon plot, i.e., plotting the apparent 1/v vs. inhibitor concentration [I] [34] and confirmed by Cornish-Bowden plot ([substrate]/v vs. [I]).

The conditions of series [4]: ORAC-FL, Trolox equivalents, cited from earlier work.

“And” between values parts separate entries of the source, which are not always exact repeats. Identical values can stand only once. “Also recorded” adds a separate entry of the source. Like-named read-outs stand apart in the source and are kept apart here.

AChE from Electrophorus electricus (EeAChE), sequence (O42275 24-633): as above
T1 sequence (P81908 whole entry): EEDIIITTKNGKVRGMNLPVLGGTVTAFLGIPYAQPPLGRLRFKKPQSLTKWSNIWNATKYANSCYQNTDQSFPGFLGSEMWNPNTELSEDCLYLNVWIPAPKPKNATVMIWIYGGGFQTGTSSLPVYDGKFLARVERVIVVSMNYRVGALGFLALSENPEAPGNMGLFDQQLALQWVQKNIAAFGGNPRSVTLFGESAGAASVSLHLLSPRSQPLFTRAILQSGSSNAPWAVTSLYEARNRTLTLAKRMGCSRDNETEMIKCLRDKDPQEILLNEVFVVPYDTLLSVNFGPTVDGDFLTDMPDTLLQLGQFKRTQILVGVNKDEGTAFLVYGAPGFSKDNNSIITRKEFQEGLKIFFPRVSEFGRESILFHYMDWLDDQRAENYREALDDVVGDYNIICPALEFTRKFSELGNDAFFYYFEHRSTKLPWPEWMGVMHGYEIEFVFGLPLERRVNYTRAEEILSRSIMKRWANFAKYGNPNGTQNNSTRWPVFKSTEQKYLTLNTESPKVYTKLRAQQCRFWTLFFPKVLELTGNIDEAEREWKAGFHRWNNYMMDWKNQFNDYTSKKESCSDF

Consider `CC(=O)C1=C(C)Oc2nc3c(c(N)c2C1c1nccn1C)CCCC3` (stereo not shown) [Compound 4, 1-(5-Amino-2-methyl-4-(1-methyl-1H-imidazol-2-yl)-6,7,8,9-tetrahydro-4H-pyrano[2,3-b]quinolin-3-yl)ethan-1-one], for which the “Cell viability (MTT reduction, % control)” value in the series on HepG2 cells (HepG2, 1 µM) is 107.7 ± 5.1 % control; in the series on HepG2 cells (HepG2, 3 µM), 105.3 ± 2.9 % control; in the series on HepG2 cells (HepG2, 10 µM), 102.1 ± 2.9 % control; in the series on HepG2 cells (HepG2, 30 µM) it was 98.0 ± 3.1 % control; in the series with HepG2 cells (HepG2, 100 µM), 104.6 ± 4.5 % control; with HepG2 cells (HepG2, 300 µM) it was 97.1 ± 3.0 % control. In addition, the “Cell viability (MTT reduction, % control)” value with HepG2 cells (HepG2, 1000 µM) was 96.8 ± 1.5 % control. Further, the “hepatotoxicity on HepG2 cells (in words)” value with HepG2 cells is given as “non-hepatotoxic; also recorded: safe even at 300 µM; also recorded: non-toxic even at the highest tested concentration; also recorded: lack of hepatotoxicity even at very high concentration”. The ORAC in series [1] was 2.31 µmol Trolox/µmol compound and 2.31 ± 0.29 µmol Trolox/µmol compound. In series [2], the midpoint of inhibition, the IC50, lay at 38.7 ± 1.7 µM. In series [3], this molecule displayed an inhibition at 10 µM of 24.9 ± 0.9%.
For the molecule `Cn1ccnc1C1c2c(nc3c(c2N)CCCC3)Oc2ccc3ccccc3c21` (stereo not shown) [Compound 8, 14-(1-Methyl-1H-imidazol-2-yl)-9,11,12,14-tetrahydro-10H-benzo[5,6]chromeno[2,3-b]quinolin-13-amine], the “Cell viability (MTT reduction, % control)” value in the series with HepG2 cells (HepG2, 1 µM) was found to be 108.1 ± 5.4 % control; with HepG2 cells (HepG2, 3 µM), 101.3 ± 10.8 % control; in the series on HepG2 cells (HepG2, 10 µM), 79.0 ± 9.1 % control; in the series with HepG2 cells (HepG2, 30 µM), 57.6 ± 4.2 % control; in the series with HepG2 cells (HepG2, 100 µM), 52.7 ± 3.3 % control; with HepG2 cells (HepG2, 300 µM), 51.2 ± 2.8 % control. Besides, the “Cell viability (MTT reduction, % control)” value in the series on HepG2 cells (HepG2, 1000 µM) is recorded as 66.2 ± 6.8 % control. For the same molecule, in the series with HepG2 cells, the “hepatotoxicity on HepG2 cells (in words)” value is on record as “more toxic than tacrine”. In addition, the ORAC in series [1] worked out at 1.88 ± 0.01 µmol Trolox/µmol compound. In addition, the “mechanism of inhibition of EeAChE” value at EeAChE (Km unaltered, Vmax decreased) is reported as “non-competitive”. Besides, at EeAChE (substrate acetylthiocholine, estimate from Cornish-Bowden plot, read-out: non-competitive inhibition constant (Ki)), the Ki is 4.1 µM. In series [2], this molecule yielded a 50% inhibitory concentration (IC50) of 6.73 ± 0.52 µM. Further, the inhibition at 10 µM in series [3] was determined as 51.6 ± 0.6%.
Turning to `Nc1c2c(nc3ccccc13)CCCC2` [Tacrine], the “Cell viability (MTT reduction, % control)” value in the series on HepG2 cells (HepG2, 1 µM) is recorded as 95.8 ± 2.2 % control; with HepG2 cells (HepG2, 3 µM), 100.4 ± 2.2 % control; in the series with HepG2 cells (HepG2, 10 µM), 96.9 ± 3.9 % control; in the series with HepG2 cells (HepG2, 30 µM), 97.7 ± 3.9 % control; in the series on HepG2 cells (HepG2, 100 µM), 98.6 ± 3.8 % control; with HepG2 cells (HepG2, 300 µM), 39.2 ± 4.7 % control. In the series with HepG2 cells (HepG2, 1000 µM), the “Cell viability (MTT reduction, % control)” value was 20.0 ± 2.1 % control. Further, in the series on HepG2 cells, the “hepatotoxicity on HepG2 cells (in words)” value is recorded as “safe up to 100 µM”. In addition, the ORAC in series [4] was 0.20 ± 0.04 [28] µmol Trolox/µmol compound; in series [4] (listed as tacrine), 0.20 ± 0.04 µmol Trolox/µmol compound.
